{"source": "patent US20210252094A1", "about": "“COMPOSITION FOR IMPROVING SLEEP DISORDERS CAUSED BY CAFFEINE CONTAINING CITRUS RIND EXTRACT” (NOAHS CO., LTD., priority 2018, published 2021)", "system": "brain hippocampal slices", "experiment": "Measurement of neural activity of cultured hippocampal slices on microelectrode array (MEA), caffeine-induced", "assay_type": "cell-based, Sprague Dawley white young rat", "details": "for neural activity after washing: 1 mM caffeine plus sample (extract 400 μg/ml, hesperidin 40 μg/ml, narirutin 136 μg/ml), then washed 20 min with artificial cerebrospinal fluid only; for degree of neural activity compared to treatment of caffeine alone: perfused 20 min with 1 mM caffeine plus sample (citrus unshiu peel extract 400 μg/ml, hesperidin 40 μg/ml, narirutin 136 μg/ml), before washing", "excerpt": "A method of organotypic culturing of slices of the brain hippocampus using a thin film used an already commonly used method. Specifically, the brain hippocampus was extracted from a Sprague Dawley white young rat (Orientbio Co., Seungnam, Korea) of 5- to 7-day old, and sliced to a thickness of 350 μm using a tissue slicer (Mickle Laboratory Engineering Co., UK). After 5 to 6 slices were disposed into a thin film insert (Millicell-CM; Millipore, MA) with 0.4-μm holes, put in a 6-well plate (SPL Life Sciences Co., Korea), and then cultured in an incubator kept with 5% CO2 at 36° C. (Dong-A Co., Seoul, Korea). A culture solution (MEM; Welgene, Gyeongsan, South Korea), 20 mM HEPES (Sigma, St. Louis, Mo., USA), a 25% Hank's balanced salt solution (HBSS; Welgene, Gyeongsan, South Korea), 6 g/L D-glucose (Sigma, St. Louis, Mo., USA), 1 mM L-glutamine (Sigma, St. Louis, Mo., USA), 25% horse serum (Welgene, Gyeongsan, South Korea), and 1% penicillin-streptomycin (Gibco BRL, USA), pH=7.1) were changed once every two days, and the culture period was 12 to 14 days, and then used in a subsequent experiment (FIG. 5). After the cultured brain hippocampal slices were carefully isolated from the cultured thin film insert using a pin, the brain hippocampal slices were placed on a 8×8 microelectrode array (MEA; Multi Channel Systems, Germany) with a diameter of 10 μm and an interval of 100 μm coated with 0.01% polyethyleneimine (Sigma, St. Louis, Mo., USA). […] Thereafter, the MEA containing the brain hippocampus was mounted on an amplification device MEA1060 (Multi Channel Systems Inc., Reutlingen, Germany), and the artificial spinal cord solution in the MEA was grounded with Ag/AgCl. During the subsequent experiment, the artificial spinal cord solution into which the 5% CO2 and 95% 02 mixed gas was added was perfused at a rate of 3 mL/min, and the MEA and the artificial spinal cord solution were maintained at 33° C. (FIG. 6) . […] The MEA with the hippocampal tissue read data at a sampling rate of 25 kHz for each channel through a total of 60 channels, and was recorded through a computer using MC_Rack and MC_Data Tool (Multi Channel Systems, GmbH) software. A 4-stage band pass filter was used to extract meaningful spikes from all recorded signals, and Equation is as follows. Wherein, X represents a root mean square (RMS) for noise, and k is a factor that determines each threshold. Here, the threshold consisted of a total of three factors (0.6, 1 and 3). […] This process was performed using a MATLAB (Mathworks Inc., Natick, Massachusetts, USA) program for all 60 channels (FIG. 7).", "note": "Entries after “also recorded” stand apart in the source; their conditions may differ.", "data": [{"smiles": "Cn1c(=O)c2c(ncn2C)n(C)c1=O", "note": "[caffeine, 1,3,7-trimetnylxanthine]", "values": [{"measurement": "increase of neural activity after washing", "setting": "1 mM caffeine alone, after washing", "result": "≥ 200", "unit": "%"}]}, {"smiles": "COc1ccc([C@@H]2CC(=O)c3c(O)cc(O[C@@H]4O[C@H](CO[C@@H]5O[C@@H](C)[C@H](O)[C@@H](O)[C@H]5O)[C@@H](O)[C@H](O)[C@H]4O)cc3O2)cc1O", "note": "[hesperidin]", "values": [{"measurement": "neural activity after washing", "result": "maintained without a significant increase; also recorded: neural activity inhibitory effect persisted"}, {"measurement": "degree of neural activity compared to treatment of caffeine alone", "result": "significantly reduced"}]}, {"smiles": "C[C@@H]1O[C@@H](OC[C@H]2O[C@@H](Oc3cc(O)c4c(c3)O[C@H](c3ccc(O)cc3)CC4=O)[C@H](O)[C@@H](O)[C@@H]2O)[C@H](O)[C@H](O)[C@H]1O", "note": "[narirutin]", "values": [{"measurement": "neural activity after washing", "result": "maintained without a significant increase; also recorded: neural activity inhibitory effect persisted"}, {"measurement": "degree of neural activity compared to treatment of caffeine alone", "result": "significantly reduced"}]}]}
